Starred links: 1 amine or outer side, 2 acyl side, 3 side chain; linkers in the order of their positions; H or OH if unused. Positions of bridges follow the written chain, without caps; N, C: chain ends. Non-standard residues stand in square brackets, D forms with d. Residues, ends and D or L forms follow the SMILES beside them. *: point of attachment. hPhe(3,5-F2-4-CF3) = N[C@@H](CCc1cc(F)c(C(F)(F)F)c(F)c1)C(=O)O; hPhe(3-Cl-4-CF3) = N[C@@H](CCc1ccc(C(F)(F)F)c(Cl)c1)C(=O)O; hPhe(4-CF3) = N[C@@H](CCc1ccc(C(F)(F)F)cc1)C(=O)O; NMePhe(4-Cl) = CN[C@@H](Cc1ccc(Cl)cc1)C(=O)O; X4 = O=C([C@H](Cc1cc(F)cc(Cl)c1)N[*:1])[*:2]; NMePhe(4-Me) = CN[C@@H](Cc1ccc(C)cc1)C(=O)O; NMePhe(3-F) = CN[C@@H](Cc1cccc(F)c1)C(=O)O; NMePhe(4-F) = CN[C@@H](Cc1ccc(F)cc1)C(=O)O; NMedβ3hAla = C[C@H](CC(=O)[*:2])N(C)[*:1]; NMeGly(cPent) = CN[C@H](C(=O)O)C1CCCC1; Pro(4,4-F2) = O=C(O)[C@@H]1CC(F)(F)CN1; NMeCha = CN[C@@H](CC1CCCCC1)C(=O)O; NMeGly(cPr) = CN[C@H](C(=O)O)C1CC1; Nva(3-Et) = CCC(CC)[C@H](N)C(=O)O; NMeF = CN[C@@H](Cc1ccccc1)C(=O)O; NMeI = CC[C@H](C)[C@H](NC)C(=O)O; NMeD = CN[C@@H](CC(=O)O)C(=O)O; NMeL = CN[C@@H](CC(C)C)C(=O)O; NEtAla = CCN[C@@H](C)C(=O)O; NMeV = CN[C@H](C(=O)O)C(C)C; d(β3hA) = C[C@@H](N)CC(=O)O; NMeA = CN[C@@H](C)C(=O)O; NMeAib = CNC(C)(C)C(=O)O; Nle = CCCC[C@H](N)C(=O)O; Piperidide = C1CCN(*)CC1; Pyrrolidide = C1CCN(*)C1; dNMeA = CN[C@H](C)C(=O)O; Ac5c = NC1(C(=O)O)CCCC1; Aze = O=C(O)[C@@H]1CCN1; NcPrGly = O=C(O)CNC1CC1; Sar = CNCC(=O)O
Biological target: T1, Kras and SOS1 (biotin-tagged human Kras loaded with GDP, His-tagged human SOS1) (Homo sapiens, UniProt P01116, G12D)
T1 construct: made in house; host or cells: E. coli (stated for Kras only)
Assay: Protein-protein interaction inhibition between Kras and SOS1 (KrasGl2D-SOS PPI) using AlphaScreen
Assay type: binding
Conditions: AlphaScreen; biotin-tagged human Kras loaded with GDP, His-tagged human SOS1; read-out: KRAS G12D-SOS PPI IC50
Procedure, shortened: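 Read-out is acceptor-bead light at 520-620 nm, arising when 680 nm-irradiated nickel donor beads pass singlet oxygen to streptavidin acceptors. The bead pair links His-tagged SOS1 with biotin-tagged, GDP-bound Kras from E. coli.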

T1 sequence (P01116 1-188 isoform P01116-2 G12D): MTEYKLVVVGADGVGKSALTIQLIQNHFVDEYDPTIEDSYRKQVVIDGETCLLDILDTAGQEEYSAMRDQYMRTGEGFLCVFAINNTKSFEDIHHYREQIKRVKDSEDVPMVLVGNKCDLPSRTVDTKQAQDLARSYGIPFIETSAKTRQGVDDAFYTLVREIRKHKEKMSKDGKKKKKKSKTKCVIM

## CC[C@H](C)[C@@H]1NC(=O)[C@H](CC(C)C)N(C)C(=O)C[C@@H](C(=O)N(C)C)N(C)C(=O)[C@H](C2CCCC2)N(C)C(=O)C2(CCCC2)NC(=O)[C@@H](C)NC(=O)[C@H](CCc2ccc(C(F)(F)F)c(Cl)c2)NC(=O)CN(C)C(=O)[C@H](CC2CCCCC2)N(C)C(=O)[C@@H]2CCN2C(=O)[C@H](C)N(C)C1=O [Compound 191] ([NMeL]I[NMeA][Aze][NMeCha][Sar][hPhe(3-Cl-4-CF3)][dA][Ac5c][NMeGly(cPent)][NMeD]-NMe2; lactam N-11)
  IC50: 3.4 nM

## CCC(CC)[C@@H]1NC(=O)[C@H](CC(C)C)N(C)C(=O)C[C@@H](C(=O)N(C)C)N(C)C(=O)[C@H]([C@@H](C)CC)N(C)C(=O)CNC(=O)[C@@H]2CCCN2C(=O)[C@H](CCc2ccc(C(F)(F)F)c(Cl)c2)NC(=O)CN(C)C(=O)[C@H](Cc2ccc(C)cc2)N(C)C(=O)[C@@H]2CCN2C(=O)[C@H](C)N(C)C1=O [Compound 193] ([NMeL][Nva(3-Et)][NMeA][Aze][NMePhe(4-Me)][Sar][hPhe(3-Cl-4-CF3)]PG[NMeI][NMeD]-NMe2; lactam N-11)
  IC50: 420 nM

## CC[C@H](C)[C@@H]1NC(=O)[C@H](C)N(C)C(=O)C[C@@H](C)NC(=O)[C@H](C2CCCC2)N(C)C(=O)C2(CCCC2)NC(=O)[C@@H]2CCCN2C(=O)[C@H](CCc2ccc(C(F)(F)F)c(Cl)c2)NC(=O)CN(C)C(=O)[C@H](Cc2cccc(F)c2)N(C)C(=O)[C@@H]2CCCN2C(=O)CN(C)C1=O [Compound 194] (cyclo([Ac5c][NMeGly(cPent)][d(β3hA)][NMeA]I[Sar]P[NMePhe(3-F)][Sar][hPhe(3-Cl-4-CF3)]P))
  IC50: 27 nM

## CC[C@H](C)[C@@H]1NC(=O)[C@H](C)N(CC)C(=O)C[C@@H](C)NC(=O)[C@H](C(C)C)N(C)C(=O)C2(CCCC2)NC(=O)[C@@H]2CCCN2C(=O)[C@H](CCc2ccc(C(F)(F)F)c(Cl)c2)NC(=O)CN(C)C(=O)[C@H](CC2CCCCC2)N(C)C(=O)CN(C)C(=O)CN(C)C1=O [Compound 196] (cyclo([Ac5c][NMeV][d(β3hA)][NEtAla]I[Sar][Sar][NMeCha][Sar][hPhe(3-Cl-4-CF3)]P))
  IC50: 13 nM

## CC[C@H](C)[C@@H]1NC(=O)[C@H](CC(C)C)N(C)C(=O)C[C@@H](C(=O)N2CCCCC2)N(C)C(=O)[C@H](C2CC2)N(C)C(=O)C2(CCCC2)NC(=O)[C@@H]2CCCN2C(=O)[C@H](CCc2ccc(C(F)(F)F)c(Cl)c2)NC(=O)CN(C)C(=O)[C@H](CC2CCCCC2)N(C)C(=O)CN(C)C(=O)CN(C)C1=O [Compound 197] ([NMeL]I[Sar][Sar][NMeCha][Sar][hPhe(3-Cl-4-CF3)]P[Ac5c][NMeGly(cPr)][NMeD]-Piperidide; lactam N-11)
  IC50: 6.8 nM

## CC[C@H](C)[C@@H]1NC(=O)[C@H](CC(C)C)N(C)C(=O)C[C@@H](C)N(C)C(=O)[C@H](C2CCCC2)N(C)C(=O)C2(CCCC2)NC(=O)[C@@H]2CC(F)(F)CN2C(=O)[C@H](CCc2cc(F)c(C(F)(F)F)c(F)c2)NC(=O)CN(C)C(=O)[C@H](CC2CCCCC2)N(C)C(=O)CN(C)C(=O)CN(C)C1=O [Compound 198] (cyclo([Ac5c][NMeGly(cPent)][NMedβ3hAla][NMeL]I[Sar][Sar][NMeCha][Sar][hPhe(3,5-F2-4-CF3)][Pro(4,4-F2)]))
  IC50: 8.5 nM

## CC[C@H](C)[C@@H]1NC(=O)[C@H](C)N(C)C(=O)C[C@@H](C(=O)N2CCCC2)NC(=O)[C@H](CC(C)C)N(C)C(=O)[C@H](Cc2ccccc2)N(C)C(=O)[C@H](CC(C)C)N(C)C(=O)[C@H](CCc2ccc(C(F)(F)F)cc2)NC(=O)CN(C)C(=O)[C@H](Cc2ccc(Cl)cc2)N(C)C(=O)CN(C)C(=O)CN(C)C1=O [Compound 199] ([NMeA]I[Sar][Sar][NMePhe(4-Cl)][Sar][hPhe(4-CF3)][NMeL][NMeF][NMeL]D-Pyrrolidide; lactam N-11)
  IC50: 36 nM

## CCCC[C@@H]1NC(=O)[C@H](Cc2cc(F)cc(Cl)c2)NC(=O)CN(C)C(=O)[C@H](Cc2ccc(Cl)cc2)N(C)C(=O)CN(C)C(=O)CN(C)C(=O)[C@H]([C@@H](C)CC)NC(=O)[C@H](CC(C)C)N(C)C(=O)C[C@@H](C(=O)N2CCCCC2)N(C)C(=O)[C@H](CC(C)C)NC(=O)C(C)(C)N(C)C1=O [Compound 202] ([NMeL]I[Sar][Sar][NMePhe(4-Cl)][Sar][X4][Nle][NMeAib]L[NMeD]-Piperidide; lactam N-11)
  IC50: 39 nM

## CC[C@H](C)[C@@H]1NC(=O)[C@H](CC(C)C)N(C)C(=O)C[C@@H](C)NC(=O)[C@H](C(C)C)N(C)C(=O)C2(CCCC2)NC(=O)[C@@H]2CCCN2C(=O)[C@H](CCc2ccc(C(F)(F)F)c(Cl)c2)NC(=O)CN(C2CC2)C(=O)[C@H](CC2CCCCC2)N(C)C(=O)CN(C)C(=O)CN(C)C1=O [Compound 204] (cyclo([Ac5c][NMeV][d(β3hA)][NMeL]I[Sar][Sar][NMeCha][NcPrGly][hPhe(3-Cl-4-CF3)]P))
  IC50: 180 nM

## CC[C@H](C)[C@@H]1NC(=O)[C@H](C)N(C)C(=O)C[C@@H](C)NC(=O)[C@H](C2CCCC2)N(C)C(=O)C2(CCCC2)NC(=O)[C@@H]2CCCN2C(=O)[C@H](CCc2ccc(C(F)(F)F)c(Cl)c2)NC(=O)[C@@H](C)N(C)C(=O)[C@H](Cc2ccc(F)cc2)N(C)C(=O)CN(C)C(=O)CN(C)C1=O [Compound 206] (cyclo([Ac5c][NMeGly(cPent)][d(β3hA)][NMeA]I[Sar][Sar][NMePhe(4-F)][dNMeA][hPhe(3-Cl-4-CF3)]P))
  IC50: 110 nM

From patent publication US12371454B2, “Cyclic peptide compound having Kras inhibitory action” (priority 2019, dated 2025)
